Source: patent US4450269A, “Mono-5-substituted-3-chloro-4H-1,2,6-thiadiazin-4-one antifungal agents” (FMC Corporation, priority 1980, dated 1984)

Columns and labels:
Experiment in all cases: Spore germination test
Format in all cases: cell-based
[1] = system: Alternaria solani; details: AS, 48 hours
Procedure, shortened: (§1)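 Compound in acetone was mixed into water agar at final 40, 10, 2.5 and 1 ppm and poured into quadrant dishes. Quadrants received spore suspension, while Erysiphe polygoni and Uromyces phaseoli spores were brushed on from infected leaves. After 48 h at 24 °C, the percentage of germinated spores was converted to a germination rating.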

[2] = system: Botrytis cinerea; details: BC, 48 hours
Procedure, shortened: as §1

[3] = system: Uromyces phaseoli; details: UP, 48 hours
Procedure, shortened: as §1

O=c1c(Cl)nsnc1Oc1c(Cl)cccc1Cl [Compound 18, 3-chloro-5-(2,6-dichlorophenoxy)-4H--1,2,6-thiadiazin-4-one]
Spore Germination Rating ([1]; 1.0 ppm): 3 (60-80)
Spore Germination Rating ([1]; 2.5 ppm): 2 (40-60)
Spore Germination Rating ([1]; 10 ppm): 1 (10-40)
Spore Germination Rating ([1]; 40 ppm): 0 (0-10)
Spore Germination Rating ([2]; 1.0 ppm): 4 (80-100)
Spore Germination Rating ([2]; 2.5 ppm): 1 (10-40)
Spore Germination Rating ([2]; 10 ppm): 0 (0-10)
Spore Germination Rating ([2]; 40 ppm): 0 (0-10)
Spore Germination Rating ([3]; 1.0 ppm): 0 (0-10)
Spore Germination Rating ([3]; 2.5 ppm): 0 (0-10)
Spore Germination Rating ([3]; 10 ppm): 0 (0-10)
Spore Germination Rating ([3]; 40 ppm): 0 (0-10)

O=C(O)Cc1ccccc1Oc1nsnc(Cl)c1=O [Compound 45, 3-(2-carboxymethylphenoxy)-5-chloro-4H--1,2,6-thiadiazin-4-one]
Spore Germination Rating ([1]; 1.0 ppm): 4 (80-100)
Spore Germination Rating ([1]; 2.5 ppm): 4 (80-100)
Spore Germination Rating ([1]; 10 ppm): 4 (80-100)
Spore Germination Rating ([1]; 40 ppm): 2 (40-60)
Spore Germination Rating ([2]; 1.0 ppm): 4 (80-100)
Spore Germination Rating ([2]; 2.5 ppm): 4 (80-100)
Spore Germination Rating ([2]; 10 ppm): 4 (80-100)
Spore Germination Rating ([2]; 40 ppm): 2 (40-60)
Spore Germination Rating ([3]; 1.0 ppm): 4 (80-100)
Spore Germination Rating ([3]; 2.5 ppm): 4 (80-100)
Spore Germination Rating ([3]; 10 ppm): 4 (80-100)
Spore Germination Rating ([3]; 40 ppm): 2 (40-60)

O=c1c(Cl)nsnc1Oc1cccc(Cl)c1 [Compound 13, 3-chloro-5-(3-chlorophenoxy)-4H--1,2,6-thiadiazin-4-one]
Spore Germination Rating ([1]; 1.0 ppm): 2 (40-60)
Spore Germination Rating ([1]; 2.5 ppm): 0 (0-10)
Spore Germination Rating ([1]; 10 ppm): 0 (0-10)
Spore Germination Rating ([1]; 40 ppm): 0 (0-10)
Spore Germination Rating ([2]; 1.0 ppm): 4 (80-100)
Spore Germination Rating ([2]; 2.5 ppm): 4 (80-100)
Spore Germination Rating ([2]; 10 ppm): 0 (0-10)
Spore Germination Rating ([2]; 40 ppm): 0 (0-10)
Spore Germination Rating ([3]; 1.0 ppm): 0 (0-10)
Spore Germination Rating ([3]; 2.5 ppm): 0 (0-10)
Spore Germination Rating ([3]; 10 ppm): 0 (0-10)
Spore Germination Rating ([3]; 40 ppm): 0 (0-10)

O=C(O)c1ccc(Oc2nsnc(Cl)c2=O)cc1 [Compound 50, 3-(4-carboxyphenoxy)-5-chloro-4H--1,2,6-thiadiazin-4-one]
Spore Germination Rating ([1]; 1.0 ppm): 4 (80-100)
Spore Germination Rating ([1]; 2.5 ppm): 4 (80-100)
Spore Germination Rating ([1]; 10 ppm): 4 (80-100)
Spore Germination Rating ([1]; 40 ppm): 4 (80-100)
Spore Germination Rating ([2]; 1.0 ppm): 4 (80-100)
Spore Germination Rating ([2]; 2.5 ppm): 4 (80-100)
Spore Germination Rating ([2]; 10 ppm): 4 (80-100)
Spore Germination Rating ([2]; 40 ppm): 4 (80-100)
Spore Germination Rating ([3]; 1.0 ppm): 4 (80-100)
Spore Germination Rating ([3]; 2.5 ppm): 4 (80-100)
Spore Germination Rating ([3]; 10 ppm): 2 (40-60)
Spore Germination Rating ([3]; 40 ppm): 0 (0-10)

CC(=O)Nc1ccc(Oc2nsnc(Cl)c2=O)cc1 [Compound 8, 5-(4-acetylaminophenoxy)-3-chloro-4H--1,2,6-thiadiazin-4-one]
Spore Germination Rating ([1]; 1.0 ppm): 3 (60-80)
Spore Germination Rating ([1]; 2.5 ppm): 2 (40-60)
Spore Germination Rating ([1]; 10 ppm): 2 (40-60)
Spore Germination Rating ([1]; 40 ppm): 0 (0-10)
Spore Germination Rating ([2]; 1.0 ppm): 4 (80-100)
Spore Germination Rating ([2]; 2.5 ppm): 4 (80-100)
Spore Germination Rating ([2]; 10 ppm): 4 (80-100)
Spore Germination Rating ([2]; 40 ppm): 4 (80-100)
Spore Germination Rating ([3]; 1.0 ppm): 4 (80-100)
Spore Germination Rating ([3]; 2.5 ppm): 4 (80-100)
Spore Germination Rating ([3]; 10 ppm): 0 (0-10)
Spore Germination Rating ([3]; 40 ppm): 0 (0-10)

Cc1cc(Cl)c(Oc2nsnc(Cl)c2=O)cc1C [Compound 58, 3-chloro-5-[(2-chloro-4,5-dimethyl)phenoxy]-4H--1,2,6-thiadiazin-4-one]
Spore Germination Rating ([1]; 1.0 ppm): 4 (80-100)
Spore Germination Rating ([1]; 2.5 ppm): 3 (60-80)
Spore Germination Rating ([1]; 10 ppm): 0 (0-10)
Spore Germination Rating ([1]; 40 ppm): 0 (0-10)
Spore Germination Rating ([2]; 1.0 ppm): 3 (60-80)
Spore Germination Rating ([2]; 2.5 ppm): 0 (0-10)
Spore Germination Rating ([2]; 10 ppm): 0 (0-10)
Spore Germination Rating ([2]; 40 ppm): 0 (0-10)
Spore Germination Rating ([3]; 1.0 ppm): 2 (40-60)
Spore Germination Rating ([3]; 2.5 ppm): 0 (0-10)
Spore Germination Rating ([3]; 10 ppm): 0 (0-10)
Spore Germination Rating ([3]; 40 ppm): 0 (0-10)

N#CCc1ccc(Oc2nsnc(Cl)c2=O)cc1 [Compound 46, 3-chloro-5-[(4-cyanomethyl)-phenoxy]4H--1,2,6-thiadiazin-4-one]
Spore Germination Rating ([1]; 1.0 ppm): 4 (80-100)
Spore Germination Rating ([1]; 2.5 ppm): 2 (40-60)
Spore Germination Rating ([1]; 10 ppm): 2 (40-60)
Spore Germination Rating ([1]; 40 ppm): 0 (0-10)
Spore Germination Rating ([2]; 1.0 ppm): 4 (80-100)
Spore Germination Rating ([2]; 2.5 ppm): 3 (60-80)
Spore Germination Rating ([2]; 10 ppm): 3 (60-80)
Spore Germination Rating ([2]; 40 ppm): 0 (0-10)
Spore Germination Rating ([3]; 1.0 ppm): 1 (10-40)
Spore Germination Rating ([3]; 2.5 ppm): 0 (0-10)
Spore Germination Rating ([3]; 10 ppm): 0 (0-10)
Spore Germination Rating ([3]; 40 ppm): 0 (0-10)

O=c1c(Cl)nsnc1Oc1ccc(Cl)cc1 [Compound 12, 3-chloro-5-(4-chlorophenoxy)-4H--1,2,6-thiadiazin-4-one]
Spore Germination Rating ([1]; 1.0 ppm): 3 (60-80)
Spore Germination Rating ([1]; 2.5 ppm): 1 (10-40)
Spore Germination Rating ([1]; 10 ppm): 1 (10-40)
Spore Germination Rating ([1]; 40 ppm): 0 (0-10)
Spore Germination Rating ([2]; 1.0 ppm): 0 (0-10)
Spore Germination Rating ([2]; 2.5 ppm): 2 (40-60)
Spore Germination Rating ([2]; 10 ppm): 0 (0-10)
Spore Germination Rating ([2]; 40 ppm): 0 (0-10)
Spore Germination Rating ([3]; 1.0 ppm): 1 (10-40)
Spore Germination Rating ([3]; 2.5 ppm): 1 (10-40)
Spore Germination Rating ([3]; 10 ppm): 0 (0-10)
Spore Germination Rating ([3]; 40 ppm): 0 (0-10)

CNC(=O)Nc1ccc(Oc2nsnc(Cl)c2=O)cc1 [Compound 28, 3-chloro-5-[4-(3-methylureido)-phenoxy]-4H--1,2,6-thiadiazin-4-one]
Spore Germination Rating ([1]; 1.0 ppm): 4 (80-100)
Spore Germination Rating ([1]; 2.5 ppm): 4 (80-100)
Spore Germination Rating ([1]; 10 ppm): 4 (80-100)
Spore Germination Rating ([1]; 40 ppm): 4 (80-100)
Spore Germination Rating ([2]; 1.0 ppm): 4 (80-100)
Spore Germination Rating ([2]; 2.5 ppm): 1 (10-40)
Spore Germination Rating ([2]; 10 ppm): 0 (0-10)
Spore Germination Rating ([2]; 40 ppm): 0 (0-10)
Spore Germination Rating ([3]; 1.0 ppm): 4 (80-100)
Spore Germination Rating ([3]; 2.5 ppm): 2 (40-60)
Spore Germination Rating ([3]; 10 ppm): 2 (40-60)
Spore Germination Rating ([3]; 40 ppm): 2 (40-60)
